This passage reports melting point results from patent publication US7459552B2, “Method for producing cyclic diamine derivative or salt thereof” (Kowa Co., Ltd., priority 2003, dated 2008).

In general, melting point refers to the temperature of the solid-liquid transition. `CSc1cc(C)nc(SC)c1NC(=O)CN1CCN(CCSc2nc3cc(C(F)(F)F)ccc3o2)CC1` [Example 4, 2-[4-[2-(5-trifluoromethylbenzoxazol-2-ylthio)ethyl]piperazin-1-yl]-N-[2,4-bis(methylthio)-6-methylpyridin-3-yl]acetamide]: the melting point lay in the range of 103 to 104 °C. Next, `Cc1cc(OCC(F)(F)F)c(NC(=O)CN2CCN(CCSc3nc4cc(F)c(F)cc4[nH]3)CC2)c(OCC(F)(F)F)n1` [Example 5, 2-[4-[2-(5,6-difluorobenzimidazol-2-ylthio)ethyl]piperazin-1-yl]-N-[2,4-bis(2,2,2-trifluoroethoxy)-6-methylpyridin-3-yl]acetamide]: 191 to 192 °C; `Cc1cc(OCC(F)(F)F)c(NC(=O)CN2CCN(CCSc3nc4ccccc4o3)CC2)c(OCC(F)(F)F)n1` [Example 7, 2-[4-[2-(benzoxazol-2-ylthio)ethyl]piperazin-1-yl]-N-[2,4-bis(2,2,2-trifluoroethoxy)-6-methylpyridin-3-yl]acetamide]: 141 to 142 °C. Next, `Cc1cc(C(F)(F)F)c(NC(=O)CN2CCN(CCSc3nc4ccccc4s3)CC2)c(C)n1` [Example 8, 2-[4-[2-(benzothiazol-2-ylthio)ethyl]piperazin-1-yl]-N-[2,6-dimethyl-4-trifluoromethyl-pyridin-3-yl]acetamide]: 107 to 108 °C.
